For test [1], the target named is T1, Human N-terminal recombinant Hsp90 protein (region of amino acids 9 to 236) (Homo sapiens, UniProt P07900).
T1 construct: Human N-terminal recombinant Hsp90 protein (region of amino acids 9 to 236); made in house
Nature of the test: Hsp90 protein binding assay (competition with biotinylated Radicicol, time-resolved fluorescence). The following applies: immobilized Hsp90, biotinylated Radicicol 0.1 μmol/L, 24° C.; read-out: concentration inhibiting the binding of biotinylated Radicicol to the Hsp90 protein by 50% or more. On the procedure:
Hsp90 Protein Binding Assay
Human N-terminal recombinant Hsp90 protein (region of amino acids 9 to 236) prepared according to the method described in “Cell”, 1997, Vol. 89, p. 239-250 was diluted to 1 μg/mL with Tris-buffered saline (TBS, pH 7.5) and added to each well of a 96-well ELISA assay plate (Greiner) in an amount of 70 μL/well. The plate was incubated overnight at 4° C. to obtain the solid phase.
The supernatant was removed, and Tris-buffered saline containing 1% bovine serum albumin (BSA) was added in an amount of 350 μL/well for blocking.
After the blocking solution was removed, each resulting solid phase was washed by the addition of Tris-buffered saline containing 0.05% Tween 20 (TBST) in an amount of 350 μL/well. This washing procedure was repeated three times. […]
Enhancement solution (Wallac Oy) was added thereto in an amount of 100 μL/well and color developing reaction was carried out at room temperature for 5 minutes, followed by measurement of time-resolved fluorescence (excitation wavelength: 340 nm, measurement wavelength: 615 nm) using Multilabel Counter (ARVO 1420, Wallac Oy).
The binding rate in each well treated the test compound was calculated from the time-resolved fluorescence measured for each well based on the time-resolved fluorescence measured with the positive control taken as 100% binding rate and that with the negative control taken as 0% binding rate.

The test system of test [2] is human chronic myelocytic leukemia K562 cells. Description: Growth inhibition test on human chronic myelocytic leukemia K562 cells (WST-1). Format: cell-based. The following applies: 72 hours, read-out: 50% growth inhibitory concentration (GI50). On the procedure: Growth Inhibition Test on Human Chronic Myelocytic Leukemia K562 Cells
First, 1,500 cells of human chronic myelocytic leukemia K562 were inoculated into each well of a 96-well microplate (manufactured by Nunc Corp.), and using RPMI1640 medium containing 10% fetal calf serum (FCS), preculturing was performed in a 5% carbon dioxide incubator at 37° C. for 5 hours. A DMSO solution of each test compound prepared in a concentration of 10 mmol/L was stepwise diluted with the culture medium and added thereto in a total amount of 100 μL/well. The resulting wells were further cultured in the 5% carbon dioxide incubator at 37° C. for 72 hours. […] Using a microplate spectrophotometer (SpectraMax 340PC384; manufactured by Molecular Devices), the absorbance of each well was measured at 450 nm and 655 nm. […] The value obtained by subtracting the absorbance at 655 nm from the absorbance at 450 nm (absorbance difference) was calculated for each well. The absorbance difference obtained from cells untreated with any of the test compounds was designated as 100%. The absorbance difference obtained from cells treated with the compounds at the test concentrations was compared. […]

Each structure is given as a SMILES string. A value given as a limit tells only on which side of the number the result lay.

Take `COC1/C=C\C=C(/C)C(=O)Nc2cc(O)cc(c2O)C(OC)C(C)CC(OC)C(OC)C(C)/C=C(\C)C1OC(N)=O` (stereo not drawn) [Compound 1]: the IC50 in test [1] was no more than 10 µM. Regarding `COC1C=CC=C(C)C(=O)Nc2cccc(c2O)C(OC)C(C)CC(OC)C(OC)C(C)C=C(C)C1OC(N)=O` (stereo not drawn) [Compound 2], the GI50 in test [2] is no more than 10 µM. The IC50 in test [1] was no more than 10 µM.

Source of the values: patent US7776849B2, “Benzenoid ansamycin derivative” (Kyowa Hakko Kirin Co., Ltd., priority 2005, dated 2010).
